Read-outs that look alike come from different tables or passages of the source.
Legend:
[1] = test system: Glomerella lacenarium (Colletotrichum lacenarium); test: Glomerella lacenarium (Colletotrichum lacenarium) liquid culture / cucumber / preventative (anthracnose); type: cell-based; settings: read-out: disease control (inhibition of growth, photometric) compared to untreated control
Procedure, shortened: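 At 20 ppm in the applied formulation, compounds were mixed with fungal spores in potato dextrose broth and held at 24° C. After 3–4 days, photometric growth measurement gave percent antifungal activity relative to untreated control.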

[2] = test system: Puccinia recondita f. Sp. Tritici; test: Puccinia recondita f. sp. tritici / wheat / leaf disc preventative (brown rust); type: in vivo; settings: foliar, 200 ppm in the applied formulation, wheat leaf segments, preventative, assessed 7 to 9 days after application, read-out: disease control compared to untreated control leaf disks
Procedure, shortened: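 Wheat cv. Kanzler leaf segments on agar sprayed with formulated compound in water, inoculated with rust spores 1 day later. Incubated at 19° C, 75% rh, 12 h light/12 h dark; percent disease control versus untreated scored 7 to 9 days after application; tested at 200 ppm.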

Phakopsora pachyrhizi = Phakopsora pachyrhizi / soybean / leaf disc preventative (Asian soybean rust); type: in vivo; settings: foliar, 200 ppm in the applied formulation, soybean leaf disks, assessed 12 to 14 days after application, read-out: disease control compared to untreated control leaf disks
Procedure, shortened: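 Soybean leaf discs on water agar were sprayed with formulated compound diluted in water, then inoculated one day later with spore suspension on the lower leaf surface. Held 24-36 h dark at 20° C., 75% RH, then 12 h light/day; percent disease control versus untreated scored 12 to 14 days after application.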

[3] = test system: Puccinia recondita f. Sp. Tritici; test: Puccinia recondita f. sp. tritici / wheat / leaf disc curative (brown rust); type: in vivo; settings: foliar, 200 ppm in the applied formulation, wheat leaf segments, curative (applied 1 day after inoculation), assessed 6 to 8 days after application, read-out: disease control compared to untreated control leaf disks
Procedure, shortened: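 Curative treatment: formulated compound in water was applied 1 day post-inoculation to spore-inoculated wheat cv. Kanzler segments held on agar. Segments stayed at 19° C and 75% relative humidity (12 h photoperiod after application), and disease control relative to untreated checks was assessed 6 to 8 days later.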

[4] = 20 ppm in the applied formulation, liquid culture in PDB, 24° C., 3 to 4 days after application

Structure (SMILES) | inhibition at 20 ppm [1] | melting point | inhibition at 20 ppm [1, 4] | pest or weed control at 200 ppm [2] | pest or weed control at 200 ppm (Phakopsora pachyrhizi) | pest or weed control at 200 ppm [3]
CO/N=C(\C#N)C(=O)NCc1ccc(-c2noc(C(F)(F)F)n2)cc1 [Compound 2.13, (1E)-N-methoxy-2-oxo-2-[[4-[5-(trifluoromethyl)-1,2,4-oxadiazol-3-yl]phenyl]methylamino] acetimidoyl cyanide] | ≥ 80% | 130 to 131 °C |  |  |  | 
CCC(=O)C(=O)NCc1ccc(-c2noc(C(F)(F)F)n2)cc1Cl [Compound 1.64, N-[[2-chloro-4-[5-(trifluoromethyl)-1,2,4-oxadiazol-3-yl]phenyl]methyl]-2-oxo-butanamide] |  |  | ≥ 80% | ≥ 80% | ≥ 80% | ≥ 80%
CCC(=O)C(=O)NCc1ccc(-c2noc(C(F)(F)F)n2)cc1F [Compound 1.41, N-[[2-fluoro-4-[5-(trifluoromethyl)-1,2,4-oxadiazol-3-yl]phenyl]methyl]-2-oxo-butanamide] |  |  | ≥ 80% | ≥ 80% | ≥ 80% | ≥ 80%
CON(Cc1ccc(-c2noc(C(F)(F)F)n2)cc1)C(=O)C(=O)CC(C)C [Compound 1.72, N-methoxy-4-methyl-2-oxo-N-[[4-[5-(trifluoromethyl)-1,2,4-oxadiazol-3-yl]phenyl]methyl]pentanamide] |  |  | ≥ 80% | ≥ 80% | ≥ 80% | ≥ 80%
CC(C)(C)C(=O)C(=O)NCc1ccc(-c2noc(C(F)(F)F)n2)cc1 [Compound 1.52, 3,3-dimethyl-2-oxo-N-[[4-[5-(trifluoromethyl)-1,2,4-oxadiazol-3-yl]phenyl]methyl]butanamide] |  |  | ≥ 80% | ≥ 80% | ≥ 80% | ≥ 80%
C=CCN(Cc1ccc(-c2noc(C(F)(F)F)n2)cc1)C(=O)C(N)=O [Compound 4.26, N′-allyl-N′-[[4-[5-(trifluoromethyl)-1,2,4-oxadiazol-3-yl]phenyl]methyl] oxamide] |  |  | ≥ 80% | ≥ 80% | ≥ 80% | ≥ 80%
CCON(Cc1ccc(-c2noc(C(F)(F)F)n2)cc1)C(=O)C(N)=O [Compound 4.86, N′-ethoxy-N′-[[4-[5-(trifluoromethyl)-1,2,4-oxadiazol-3-yl]phenyl]methyl] oxarnide] |  |  | ≥ 80% | ≥ 80% | ≥ 80% | ≥ 80%
CN(C)C(=O)C(=O)NCc1c(F)cc(-c2noc(C(F)(F)F)n2)cc1F [Compound 4.98, N-[[2,6-difluoro-4-[5-(trifluoromethyl)-1,2,4-oxadiazol-3-yl]phenyl]methyl]-N′,N′-dimethyl-oxamide] |  |  | ≥ 80% | ≥ 80% | ≥ 80% | ≥ 80%
CCN(Cc1ccc(-c2noc(C(F)(F)F)n2)cc1)C(=O)C(=O)C1CC1 [Compound 1.93, 2-cyclopropyl-N-ethyl-2-oxo-N-[[4-[5-(trifluoromethyl)-1,2,4-oxadiazol-3-yl]phenyl]methyl]acetamide] |  |  | ≥ 80% | ≥ 80% | ≥ 80% | ≥ 80%
C=CCN(Cc1ccc(-c2noc(C(F)(F)F)n2)cc1)C(=O)C(=O)N(C)C [Compound 4.25, N′-allyl-N,N-dimethyl-N′-[[4-[5-(trifluoromethyl)-1,2,4-oxadiazol-3-yl]phenyl]methyl] oxamide] |  |  | ≥ 80% | ≥ 80% | ≥ 80% | ≥ 80%
CCC(=O)C(=O)N(C)Cc1ccc(-c2noc(C(F)(F)F)n2)cc1 [Compound 1.98, N-methyl-2-oxo-N-[[4-[5-(trifluoromethyl)-1,2,4-oxadiazol-3-yl]phenyl]methyl]butanamide] |  |  | ≥ 80% | ≥ 80% | ≥ 80% | ≥ 80%
CN(C(=O)C(=O)NCc1ccc(-c2noc(C(F)(F)F)n2)cc1)C1CCOC1 (stereo not drawn) [Compound 4.41, N′-methyl-N′-tetrahydrofuran-3-yl-N-[[4-[5-(trifluoromethyl)-1,2,4-oxadiazol-3-yl]phenyl]methyl] oxamide] |  |  | ≥ 80% | ≥ 80% | ≥ 80% | ≥ 80%
CCCC(=O)C(=O)N(CC)Cc1ccc(-c2noc(C(F)(F)F)n2)cc1 [Compound 1.19, N-ethyl-2-oxo-N-[[4-[5-(trifluoromethyl)-1,2,4-oxadiazol-3-yl]phenyl]methyl]pentanamide] |  |  | ≥ 80% | ≥ 80% | ≥ 80% | ≥ 80%
CO/N=C(/C)C(=O)N(Cc1ccc(-c2noc(C(F)(F)F)n2)cc1)OC [Compound 2.11, (2Z)-N-methoxy-2-methoxyimino-N-[[4-[5-(trifluoromethyl)-1,2,4-oxadiazol-3-yl]phenyl]methyl] propanamide] |  |  | ≥ 80% | ≥ 80% | ≥ 80% | ≥ 80%
CCN(Cc1ccc(-c2noc(C(F)(F)F)n2)cc1)C(=O)C(N)=O [Compound 4.28, N′-ethyl-N′-[[4-[5-(trifluoromethyl)-1,2,4-oxadiazol-3-yl]phenyl]methyl] oxamide] |  |  | ≥ 80% | ≥ 80% | ≥ 80% | ≥ 80%
CCC(=O)C(=O)N(Cc1ccc(-c2noc(C(F)(F)F)n2)cc1F)OC [Compound 1.58, N-[[2-fluoro-4-[5-(trifluoromethyl)-1,2,4-oxadiazol-3-yl]phenyl]methyl]-N-methoxy-2-oxo-butanamide] |  |  | ≥ 80% | ≥ 80% | ≥ 80% | ≥ 80%
CN(C)C(=O)C(=O)NCc1ccc(-c2noc(C(F)(F)F)n2)cc1Cl [Compound 4.96, N-[[2-chloro-4-[5-(trifluoromethyl)-1,2,4-oxadiazol-3-yl]phenyl]methyl]-N′,N′-dimethyl-oxamide] |  |  | ≥ 80% | ≥ 80% | ≥ 80% | ≥ 80%
CCN(Cc1ccc(-c2noc(C(F)(F)F)n2)cc1)C(=O)C(=O)NC [Compound 4.101, N′-ethyl-N-methyl-N′-[[4-[5-(trifluoromethyl)-1,2,4-oxadiazol-3-yl]phenyl]methyl] oxamide] |  |  | ≥ 80% | ≥ 80% | ≥ 80% | ≥ 80%
CCN(CC)C(=O)C(=O)N(Cc1ccc(-c2noc(C(F)(F)F)n2)cc1)OC [Compound 4.69, N,N-diethyl-N′-methoxy-N′-[[4-[5-(trifluoromethyl)-1,2,4-oxadiazol-3-yl]phenyl]methyl] oxamide] |  |  | ≥ 80% | ≥ 80% | ≥ 80% | ≥ 80%
O=C(NCc1ccc(-c2noc(C(F)(F)F)n2)cc1)C(=O)c1ccco1 [Compound 1.82, 2-(2-furyl)-2-oxo-N-[[4-[5-(trifluoromethyl)-1,2,4-oxadiazol-3-yl]phenyl]methyl]acetamide] |  |  | ≥ 80% | ≥ 80% | ≥ 80% | ≥ 80%
CN(C)C(=O)C(=O)NCc1ccc(-c2noc(C(F)(F)F)n2)c(F)c1F [Compound 4.94, N-[[2,3-difluoro-4-[5-(trifluoromethyl)-1,2,4-oxadiazol-3-yl]phenyl]methyl]-N',N'-dimethyl-oxamide] |  |  | ≥ 80% | ≥ 80% | ≥ 80% | ≥ 80%
CON(Cc1ccc(-c2noc(C(F)(F)F)n2)cc1)C(=O)C(C)=O [Compound 1.36, N-methoxy-2-oxo-N-[[4-[5-(trifluoromethyl)-1,2,4-oxadiazol-3-yl]phenyl]methyl]propanamide] |  |  | ≥ 80% | ≥ 80% | ≥ 80% | ≥ 80%
O=C(NCc1ccc(-c2noc(C(F)(F)F)n2)cc1)C(=O)N1CCOCC1 [Compound 4.59, 2-morpholino-2-oxo-N-[[4-[5-(trifluoromethyl)-1,2,4-oxadiazol-3-yl]phenyl]methyl] acetamide] |  |  | ≥ 80% | ≥ 80% | ≥ 80% | ≥ 80%
